# Laboratory results reported in patent US8889848B2, “HCV genotype 3 replicons” (priority 2011, dated 2014).
# Where two headings read alike, the source gives them in different places.
# Key:
# Type in all cases: cell-based, HCV
# [1] = test system: Pi-Rluc-GT3a-P89L/K583E replicon; assay: Transient replicon antiviral assay, Pi-Rluc-GT3a-P89L/K583E in 1C cells; settings: for GT3a(P89L/K583E)/Ib EC50 Ratio: EC50 GT3a P89L/K583E divided by EC50 GT1b; for EC50: transient transfection, 1C cells, 3 days, renilla luciferase, mean of at least two experiments
# Experimental: (§1) Replicon RNA were electroporated into 1C cells as described above. After transfection, cells were quickly transferred into 100 mL of pre-warmed culture medium, and 90 μl was seeded in 384-well plates at a density of 2,000 cells/well. Cells were treated with three-fold serial drug dilutions at 10 different concentrations. Cell plates were incubated at 37° C. for 3 days, after which culture medium was removed and cells were assayed for luciferase activity as markers for replicon levels. Luciferase expression was quantified using a commercial luciferase assay (Promega). Luciferase levels were converted into percentages relative to the levels in the untreated controls (defined as 100%), and data were fitted to the logistic dose-response equation y=a/[1+(x/b)^c] using XLFit4 software (IDBS, Emeryville, Calif.).
# (§2) To investigate antiviral activity against genotype 3a, five different classes of HCV inhibitors were tested in a transient assay of the genotype 3a Pi-Rluc replicon: NS3 protease, NS5A, NS5B active site, NS5B non-active site, and host factor inhibitors. A standard genotype 1b Pi-Rluc replicon was tested in parallel. The transient replicon replication assays were performed in 1C cells to minimize the potential influence of host cell difference on compound antiviral activities. EC50 values against both genotype 1b and genotype 3a replicons were successfully generated for all inhibitors using a high-throughput 384-well assay measuring Rluc activity (Table 10).
# (§3) Five different classes of HCV inhibitors as listed in the first column were evaluated for their antiviral activities against GT1b and GT3a Pi-Rluc replicon in a transient transfection high-throughput 384-well format by measuring renilla luciferase activity. Data presented in the table represent the mean of at least two independent experiments.
# [2] = test system: Pi-Rluc-GT3a-P89L/A166T replicon; assay: Transient replicon antiviral assay, Pi-Rluc-GT3a-P89L/A166T in 1C cells; settings: for GT3a(P89L/A166T)/Ib EC50 Ratio: EC50 GT3a P89L/A166T divided by EC50 GT1b; for EC50: transient transfection, 1C cells, 3 days, renilla luciferase, mean of at least two experiments
# Experimental: as §1, §2, §3
# [3] = test system: genotype 1b Pi-Rluc replicon; assay: Transient replicon antiviral assay, Pi-Rluc-GT1b in 1C cells; settings: transient transfection, 3 days, renilla luciferase, mean of at least two experiments
# Experimental: as §1, §2, §3
# [4] = test system: genotype 3a Pi-Rluc replicon; assay: Transient genotype 3a Pi-Rluc replicon assay, summary over both GT3a replicons; settings: for EC50: read-out: EC50 values against genotype 3a
# Experimental: as §1, §2
Structure (SMILES),GT3a(P89L/K583E)/Ib EC50 Ratio [1],"EC50 ([1]; Hepatitis C virus, GT3A, 72 h)",GT3a(P89L/A166T)/Ib EC50 Ratio [2],"EC50 ([2]; Hepatitis C virus, GT3A, 72 h)","EC50 ([3]; Hepatitis C virus, 72 h)",EC50 ([4]; Hepatitis C virus),fold less active (less potent) against genotype 3a versus genotype 1b ([4]; transient Pi-Rluc replicons),EC50 ([4]; range over the two GT3a Pi-Rluc replicons),EC50 [1],EC50 [2],EC50 [3],fold more active against genotype 3a compared with genotype 1b ([4]; transient Pi-Rluc replicons),potency against genotype 1b and 3a replicons compared (in words) ([4]; transient Pi-Rluc replicons)
COc1ccc2c(O[C@@H]3C[C@H]4C(=O)N[C@]5(C(=O)O)C[C@H]5/C=C\CCCCC[C@H](NC(=O)OC5CCCC5)C(=O)N4C3)cc(-c3csc(NC(C)C)n3)nc2c1 [BILN-2061],102,95 nM,478,447 nM,0.93 nM,–,–,–,–,–,–,–,–
COC(=O)N[C@H](C(=O)N1CCC[C@H]1c1nc(-c2ccc(-c3ccc(-c4c[nH]c([C@@H]5CCCN5C(=O)[C@@H](NC(=O)OC)C(C)C)n4)cc3)cc2)c[nH]1)C(C)C [BMS-790052],15,0.45 nM,11,0.31 nM,0.03 nM,0.31 to 0.45 nM,11 fold,–,–,–,–,–,–
"CC(C)(C)NC(=O)N[C@H](C(=O)N1C[C@H]2[C@@H]([C@H]1C(=O)NC(CC1CCC1)C(=O)C(N)=O)C2(C)C)C(C)(C)C (stereo partly shown) [Boceprevir, boceprevir]",1.45,273 nM,2.44,460 nM,–,–,–,–,–,–,–,–,–
"CCc1cc(CC[C@]2(C3CCCC3)CC(O)=C(Cc3nc4nc(C)cc(C)n4n3)C(=O)O2)cc(CC)n1 [Filibuvir, filibuvir]",7.4,895 nM,17,2040 nM,121 nM,–,approximately 17 fold,–,–,–,–,–,–
COC(=O)N[C@H](C(=O)N1CC2(CC2)C[C@H]1c1nc(-c2ccc3c(c2)C(F)(F)c2cc(-c4ccc5[nH]c([C@@H]6[C@H]7CC[C@H](C7)N6C(=O)[C@@H](NC(=O)OC)C(C)C)nc5c4)ccc2-3)c[nH]1)C(C)C [GS-5885],9758,–,22370,–,–,–,approximately 10.000 fold,40 to 92 nM,40 nM,92 nM,0.0041 nM,–,–
CC(C)OC(=O)[C@H](C)N[P@](=O)(OC[C@H]1O[C@@H](n2ccc(=O)[nH]c2=O)[C@](C)(F)[C@@H]1O)Oc1ccccc1 [GS-7977],0.15,–,0.31,–,–,–,–,–,5.8 nM,12 nM,40 nM,–,–
Fc1ccccc1-c1nc2ccn(Cc3ccc(-c4ccc(C(F)(F)F)cc4C(F)(F)F)nn3)cc-2n1 [GS-9190],18,–,17,–,–,–,approximately 17 fold,–,46 nM,42 nM,3 nM,–,–
CC[C@@H]1C[C@]1(NC(=O)[C@@H]1C[C@@H](Oc2cc(-c3csc(NC(C)C)n3)nc3c(Cl)c(OCCN4CCOCC4)ccc23)CN1C(=O)[C@@H](NC(=O)O[C@@H]1C[C@@H]2C[C@@H]2C1)C(C)(C)C)C(=O)O [GS-9451],97,–,173,–,–,–,–,–,921 nM,1650 nM,10 nM,–,–
CC1=CC[C@H](C(=O)N(c2cc(C#CC(C)(C)C)sc2C(=O)O)[C@H]2CC[C@](O)(CO[C@H]3CCOC3)CC2)CC1 [GS-9669],33,–,61,–,–,–,~60 fold,–,125 nM,230 nM,3.8 nM,–,–
CNC(=O)c1c(-c2ccc(F)cc2)oc2cc(N(CCO)S(C)(=O)=O)c(C3CC3)cc12 [HCV-796],0.12,2.4 nM,0.14,2.8 nM,20 nM,–,–,–,–,–,–,~7 fold,–
CN(C)CCN(C)[C@H]1COc2ccccc2-c2c(C3CCCCC3)c3ccc(C(=O)O)cc3n2C1 [MK-3281],0.31,180 nM,0.47,277 nM,587 nM,–,–,–,–,–,–,about 2 fold,–
C=C[C@@H]1C[C@]1(NC(=O)[C@@H]1C[C@@H]2CN1C(=O)[C@H](C(C)(C)C)NC(=O)O[C@@H]1C[C@H]1CCCCCc1nc3ccc(OC)cc3nc1O2)C(=O)NS(=O)(=O)C1CC1 [MK-5172],28,23 nM,74,60 nM,0.81 nM,–,–,–,–,–,–,–,–
C/C=C/C[C@@H](C)[C@@H](O)[C@H]1C(=O)N[C@@H](CC)C(=O)N(C)[C@H](SCCN(C)C)C(=O)N(C)[C@@H](CC(C)(C)O)C(=O)N[C@@H](C(C)C)C(=O)N(C)[C@@H](CC(C)C)C(=O)N[C@@H](C)C(=O)N[C@H](C)C(=O)N(C)[C@@H](CC(C)C)C(=O)N(C)[C@@H](CC(C)C)C(=O)N(C)[C@@H](C(C)C)C(=O)N1C [SCY-635],0.91,59 nM,1.2,78 nM,65 nM,–,–,–,–,–,–,–,equivalent potency
"CCC[C@H](NC(=O)[C@@H]1[C@H]2CCC[C@H]2CN1C(=O)[C@@H](NC(=O)[C@@H](NC(=O)c1cnccn1)C1CCCCC1)C(C)(C)C)C(=O)C(=O)NC1CC1 [Telaprevir, telaprevir]",3.27,1330 nM,1.6,650 nM,407 nM,–,–,–,–,–,–,–,–
